Results published in patent US20240166658A1, “PORPHYRIN DERIVATIVES AND USES THEREOF” (University of Tasmania, priority 2021, published 2024).

What was measured:
[1] = Rodea-Palomares et al., 2012; cited from earlier work
[2] = Preliminary binding study of urea linked host, UV-Vis; details: dichloromethane
Description: However, these colorimetric changes were weaker than that observed with the amide equivalent, likely due to the formation of an insoluble precipitate upon binding. Binding of the urea linked porphyrin host with PFOA and PFOS was also confirmed by ^19F NMR spectra (FIG. 7).

[3] = Aqueous extraction tests; details: PFOA 5.5 × 10^−4 M in water (~228 ppm), volume 1:1
Procedure: Aqueous solutions of PFOA were prepared and combined with an organic phase of sensor molecule (9) in dichloromethane. Colour change observations at various sensor concentrations are described in Table 12.

[4] = UV-Vis host-guest titration, association constant; format: binding; details: short, medium and long chain sensor molecules with PFOA
Procedure: Path length of the quartz cell was 1 cm. For UV-vis titrations, a stock solution of host was prepared (2.2×10^−3 M) in dichloromethane (DCM) and serially diluted to the required concentrations. Working solutions of tetrabutylammonium (TBA) anion salts or guest molecules were prepared in the same manner Host−guest titrations used solutions of guest prepared in the working concentration of host solution, according to the procedure of Thordarson, 2011.
UV-vis spectroscopic host−guest titrations were performed in accordance with the methodologies of Thordarson, 2011. Solutions of host in dichloromethane were prepared. Solutions of guest were then prepared in the host solution. Aliquots of guest in host solution were added to host solution and sequentially analysed until a known molar equivalent of guest was added. The amount of guest added per aliquot was ascertained by a preliminary screening experiment; strong association constants required smaller molar equivalents so more information could be collected. […] The inverse is true for weaker binding interactions. Molar equivalents between 0.1-5 typically provided adequate information for modelling. The data was then used to simulate binding isotherms using www.supramolecular.org (Hibbert and Thordarson, 2016). The data was fitted to 1:1, 1:2 and 2:1 equilibria making no assumptions about the cooperativity of the binding interactions and modelled using different algorithms. These experiments mainly used the Nelder-Mead (Simplex) method.
UV-Vis spectroscopy binding studies were used to determine the association constant for the host (9)−PFOA complex.
A host solution of host (9) in dichloromethane was monitored using UV-Vis analysis as 0.5-10 equivalents of each PFAS was added. […] The data was processed using Bindfit isotherm simulators using both Nelder-Mead and L-BFGS-B methods (Thordarson, 2011).
To highlight any potential binding preferences across the PFCAs from the host molecules, triplicates of host−guest addition titrations were performed using host (9) and the TBA salts of the nine different deprotonated PFCAs.

[5] = PFCA guest response screening (RGB analysis, UV-Vis)
Procedure: A Puluz® 20 cm portable light tent with moderate and dispersed white LED lighting was used to photograph samples using an iPhone 6S plus camera on a fixed tripod. The automatic flash settings were disabled so there was no reflective interference on the sample vials. Samples that were being directly compared were photographed together to ensure lighting conditions and settings were consistent. The photographs were analysed using ImageJ software according to the procedure of Gallagher, 2014b. Multiple RGB values were chosen from areas of each sample at random to provide an “average” RGB value (Menesatti et al., 2012; Gallagher, 2014a; Phuangsaijai et al., 2021). Those RGB values were used to produce an artificial colour tile for visual comparison, or parameterized for modelling.
To quantify a colour difference, RGB values were transformed within the CIELab colour space. The difference, expressed as ΔE, was determined by measuring the relative distance between two colours. The numeric ΔE value can be used to predict how the two colours are perceived by a standard observer; a ΔE>2 is considered the minimum value to achieve a “just noticeable difference” (JND) (Table 1), which is the smallest difference required for an untrained observer to be able to determine two colours as being different (Castillo et al., 2021).
(§1) Experiments were performed at concentrations that could be monitored by the naked eye for practical sensing of PFAS in the field. Complexes of hosts (9), (11) and (12) were formed with the nine different perfluorocarboxylic acids (PFCAs) shown in Table 2 above and the colours of each host−PFCA complex were photographed in a lightbox and analysed using ImageJ software RGB analysis. Pixels of the solution were chosen at random to provide an RGB value. Multiple RGB values were recorded for each host−PFCA solution, and an average colour can be produced. From those values an RGB parameter was used to give a response value for modelling (Tahir et al., 2016).
(§2) After preliminary screenings, UV-Vis spectra were collected before and after the addition of 1 molar equivalent of each PFCA for each host, and the degree of complexation was noted by shifts in the Soret bands and formation of a peak at ca. 650 nm. To eliminate dilution effects, PFCA guest solutions were prepared in the equivalent concentration of host. If there was a notable host−guest interaction for a particular PFCA, the host−guest binding was investigated with more rigorous UV-Vis experiments, binding studies, and further colour analyses. Throughout these investigations, PFOA was considered the “average” PFCA both because of its position in the range of PFCA sizes and because its prevalence is often an indication of broader PFAS contamination. In any experiment where binding was further investigated for a particular PFCA, it was typically replicated with PFOA for comparison.

[6] = PFCA guest response across the nine PFCAs (UV-Vis, RGB, one-way ANOVA variance); details: dichloromethane
Procedure: as §1, §2
One-way factorial ANOVA was used to examine the dependence (or independence) of two or more factors affecting the dependent variable concurrently, in the present case the change in absorption, or the change in RGB response across the tested PFCAs, or across the different hosts. This analysis was used to determine the variance in the responses of each host across the different PFCAs. […]

[7] = Colorimetric calibration chart, RGB response to known PFOA concentrations; details: PFOA 0.7 ppm, dichloromethane
Procedure: The host molecules were combined with known concentrations of PFOA to provide RGB colour responses, which were used to create a colorimetric calibration chart that could be trialled as an indicator for estimating the total concentration of a range of any PFCAs. Solutions of each host molecule (1.00×10^−5 M) were prepared in dichloromethane. Solutions of PFOA in dichloromethane were prepared across a range of concentrations (0→16 ppm, 4.00×10^−5 M). Each host (2 mL) was combined with each PFOA concentration (1 mL, final concentration 0→1.33×10^−5 M) and photographed under equivalent lighting conditions. The average colour of each solution was then found using ImageJ RGB analysis, and a colour chart was produced.
For this reason, parametrization of the RGB values can be useful for interpreting results. The RGB response parameter can be calculated using the RGB values of the “blank” host solution (Šafranko et al., 2019) and the effective intensities of the individual RGB values of a sample (Tahir et al., 2016):
Here, H, indicates the values for the host solution, and S, indicates the response for a sample containing a PFCA, so that ΔR, ΔG, and ΔB give the colour differences. The RGB parameter is the response due to the relative difference in the RGB intensities:
The RGB values collected for each host with a range of known concentrations of PFOA in dichloromethane were parameterized and used to determine a relationship between concentration of analyte and RGB response values. […] The relationship between RGB response values and concentrations of PFOA could now be tested for accuracy in determining the concentration of any PFCA.

[8] = 1H NMR titration with GenX in CDCl3; format: binding; details: host 6.85×10^−4 M in CDCl3, 20 μL aliquots of guest

O=C(O)C(F)(F)C(F)(F)C(F)(F)C(F)(F)C(F)(F)C(F)(F)C(F)(F)F [PFOA, Perfluorooctanoic acid]
logKo/w [1]: ca. 6.44

O=C(NC(=O)C(F)(F)C(F)(F)C(F)(F)C(F)(F)C(F)(F)C(F)(F)C(F)(F)F)Nc1ccccc1-c1c2nc(c(-c3ccccc3NC(=O)NC(=O)C(F)(F)C(F)(F)C(F)(F)C(F)(F)C(F)(F)C(F)(F)C(F)(F)F)c3ccc([nH]3)c(-c3ccccc3NC(=O)NC(=O)C(F)(F)C(F)(F)C(F)(F)C(F)(F)C(F)(F)C(F)(F)C(F)(F)F)c3nc(c(-c4ccccc4NC(=O)NC(=O)C(F)(F)C(F)(F)C(F)(F)C(F)(F)C(F)(F)C(F)(F)C(F)(F)F)c4ccc1[nH]4)C=C3)C=C2 [host (10), 5,10,15,20-tetra-(2-ureaphenyl-pentadecafluoro-octanoyl) porphyrin]
colour change by UV-Vis spectrophotometric analysis ([2]; addition of PFOA): discernible colour change
colour change by UV-Vis spectrophotometric analysis ([2]; addition of PFOS): discernible colour change
Observations ([3]; sensor 1.1 × 10^−6 M in DCM, H:G 1:500): Some colour change,
Observations ([3]; sensor 2.2 × 10^−3 M in DCM, H:G 4:1): Strong colour change
Observations ([3]; sensor 2.2 × 10^−4 M in DCM, H:G 2:5): Strong colour change
Observations ([3]; sensor 2.2 × 10^−5 M in DCM, H:G 1:25): Strong colour change

O=C(Nc1ccccc1-c1c2nc(c(-c3ccccc3NC(=O)C(F)(F)C(F)(F)C(F)(F)F)c3ccc([nH]3)c(-c3ccccc3NC(=O)C(F)(F)C(F)(F)C(F)(F)F)c3nc(c(-c4ccccc4NC(=O)C(F)(F)C(F)(F)C(F)(F)F)c4ccc1[nH]4)C=C3)C=C2)C(F)(F)C(F)(F)C(F)(F)F [host (11), α,α,α,α-5,10,15,20-tetra(2-(heptafluorobutanoylamino)phenyl) porphyrin]
K [4]: 1.19e+06 M⁻¹
Absorbance @ 650 nm ([5]; host + one equivalent PFBA in dichloromethane): 0.113
Absorbance @ 650 nm ([5]; host + one equivalent PFDA in dichloromethane): 0.0469
Absorbance @ 650 nm ([5]; host + one equivalent PFDoDA in dichloromethane): 0.0519
Absorbance @ 650 nm ([5]; host + one equivalent PFHpA in dichloromethane): 0.1009
Absorbance @ 650 nm ([5]; host + one equivalent PFHxA in dichloromethane): 0.0967
Absorbance @ 650 nm ([5]; host + one equivalent PFNA in dichloromethane): 0.0473
Absorbance @ 650 nm ([5]; host + one equivalent PFOA in dichloromethane): 0.0977
Absorbance @ 650 nm ([5]; host + one equivalent PFPeA in dichloromethane): 0.1125
Absorbance @ 650 nm ([5]; host + one equivalent PFUnDA in dichloromethane): 0.0475
ΔEHost-PFCA ([5]; host vs host + PFBA): 45.9
ΔEHost-PFCA ([5]; host vs host + PFDA): 27.0
ΔEHost-PFCA ([5]; host vs host + PFDoDA): 27.2
ΔEHost-PFCA ([5]; host vs host + PFHpA): 43.2
ΔEHost-PFCA ([5]; host vs host + PFHxA): 44.4
ΔEHost-PFCA ([5]; host vs host + PFNA): 26.8
ΔEHost-PFCA ([5]; host vs host + PFOA): 40.6
ΔEHost-PFCA ([5]; host vs host + PFPeA): 45.8
ΔEHost-PFCA ([5]; host vs host + PFUnDA): 30.5
colorimetric response to all nine PFCAs [6]: strong colorimetric response
ΔE between host and lowest PFOA concentration [7]: 4
1H NMR response to addition of GenX [8]: showed shifts
